Test results taken from patent US20040097583A1, “Use of inhibitors of the sodium/hydrogen exchanger for the treatment of thrombotic and inflammatory disorders” (priority 2002, published 2004).
Values joined by “and” are separate entries in the source; they are usually repeats but may differ in a detail not shown here. Equal entries are not always repeated. “Also recorded” adds a separate entry of the source.

Columns and labels:
[1] = tested on: human umbilical vein endothelial cells (HUVEC); assay: Measurement of vWF release after reperfusion (ELISA of cell supernatant); format: cell-based
Experimental: (§1) All the examples were carried out with human umbilical vein endothelial cells (HUVEC). These comprise primary cell cultures isolated from the umbilical vein.
(§2) For the following examples, the cells were cultivated either on gelatinized glass plates (measurement of the intracellular proton concentration) or on cell culture plates (12-well culture plates, Falcon, N.J., USA; measurement of vWF release) after the first passage.
The measurements were carried out in a Heraeus Heracell incubator. This made it possible to […] the umbilical vein endothelial cells under controlled physiological conditions (temperature 37° C., relative humidity 100%, pCO2 constant at 5%), and to ensure rapid change of different cell culture media.
Said cells were initially incubated with acidotic medium (pH 6.4 composed of the ingredients: medium M199 w/Earle's & amino acids, w/L-glutamine, w/o NaHCO3, w/o Hepes+0.084 g NaHCO3/1) or pH standard medium (pH 7.4 composed of the ingredients: medium M199 w/Earle's & amino acids, w/L-glutamine, w/o NaHCO3, w/o Hepes+2.200 g NaHCO3/1), for one, three or 48 hours. Before starting the reperfusion, samples of supernatant were taken to determine the vWF concentration under acidotic conditions (vWFacidosis) and control conditions (vWFco). To simulate reperfusion, the medium was changed to one with a pH of 7.4 (ingredients: medium M199 w/Earle's & amino acids, w/L-glutamine, w/o NaHCO3, w/o Hepes+2.200 g NaHCO3/1+10 μM histamine) to which the NHE inhibitor cariporide was added in a concentration of 10 μM. Change to the same medium without corresponding addition of inhibitor served as control.
The samples taken from the supernatant were used to determine the vWF concentration. This was done by an ELISA method (enzyme-linked immuno sorbent assay) using specific antibodies. The vWF content of standard human plasma (Behring, Marburg) is calculated using an international standard (2nd International Standard 87/718, National Institute for Biological Standards and Control, London).

[2] = tested on: human umbilical vein endothelial cells (HUVEC); assay: Measurement of the intracellular pH (pHi) during reperfusion simulation after acidosis, BCECF fluorescence; format: cell-based
Experimental: as §1, §2
To measure the intracellular proton concentration (pHi), the HUVECs were loaded with the pH-sensitive fluorescent dye, BCECF-AM (2′,7′-bis(carboxyethyl)-5(6)-carboxyfluorescein). A Deltascan spectrofluorometer (PTI, Hamburg) was employed for the subsequent fluorescence measurement. This measuring system consists essentially of a UV light source, a monochromator, a photon detector and the Felix and Oscar software packages (PTI, Hamburg) for controlling the system via a computer. After alternate excitation with the wavelengths 439.5 nm (pH-independent) and 490 nm (pH-sensitive), the ratio of the measured emissions of the BCECF (ratio) was reported and the pH was found after a calibration. The measuring cell is designed so that the parameters of temperature and carbon dioxide partial pressure in the system are controlled during continuous perfusion. For the reperfusion simulation, the experimental conditions were set at 37° C. and a carbon dioxide partial pressure of 5% or 10% by gassing the system and perfusate.
In the experiment, there was initially preincubation with sodium bicarbonate buffer pHex 6.4 for 60 minutes in order to simulate […] metabolic acidosis. The initiation perfusion was then changed to sodium bicarbonate buffer of pH 7.4 with 10 μM histamine as reperfusion simulation. These control experiments were compared with an experiment in which the NHE inhibitor cariporide was added in a concentration of 10 μM to the reperfusion buffer.

With `CC(C)c1ccc(C(=O)N=C(N)N)cc1S(C)(=O)=O` [cariporide] as the compound, how does the “Effect on vWF secretion of healthy, non-acidotic control cells (in words)” value ([1]; control cells incubated with cariporide (10 μM)) read?
Its value is “no increase or decrease in vWF secretion; also recorded: showed no effect”.

And the “vWF secretion relative to control cells (vWFco = 100%), control cells incubated with cariporide (vWFco+HOE)” value ([1]; non-acidotic control cells, 10 μM cariporide, 10-minute reperfusion time with stimulation)?
The value was 106 ± 3.0%.

What about the “vWF concentration during reperfusion of preacidotic cells in the presence of cariporide (vWFHOE), relative to control (vWFco = 100%)” value ([1]; preacidotic cells (pH 6.4), 10 μM cariporide, 10-minute reperfusion time with stimulation, without cariporide 193 ± 8.0%) of the same compound?
Its value is 139 ± 16%.

What about the “Reduction of the increased vWF secretion during reperfusion” value ([1]; preacidotic cells, 10 μM cariporide) of the same compound?
Its value is about 60%.

And the “Rate of pH increase, Mean ± SEM” value ([2]; 10 μM cariporide in reperfusion buffer pH 7.4 with 10 μM histamine, after 60 minutes of acidosis (pHex 6.4), first 30 seconds after reperfusion)?
Its value is 0.27 ± 0.02 Δ pH / min.

And the “Rate of pH increase, individual experiments” value ([2]; 10 μM cariporide in reperfusion buffer pH 7.4 with 10 μM histamine, after 60 minutes of acidosis (pHex 6.4), first 30 seconds after reperfusion, listed as HOE)?
The value was 0.30 Δ pH / min and 0.24 Δ pH / min (2×) and 0.23 Δ pH / min and 0.34 Δ pH / min.

And the “Reduction in the rate of increase in intracellular pH compared with the control (factor)” value ([2]; extracellular pH changed from 6.4 to 7.4, 10 μM cariporide)?
The value was 3.6.
